Measured values: US20260076974A1, “COMPOSITIONS FOR PREVENTING AND TREATING INFECTION COMPRISING AN ARTIFICIAL SWEETENER” (Brunel University London, priority 2022, published 2026)
Read-outs that look alike come from different tables or passages of the source.

Tests used:
[1] = system: P. aeruginosa PA14; assay: Growth inhibition assay in nutrient medium (OD600); assay type: cell-based, Pseudomonas aeruginosa
[2] = system: A. baumannii AB5075; assay: Growth inhibition assay in LB medium (OD600); assay type: cell-based, Acinetobacter baumannii
[3] = system: A. baumannii AB5075; assay: Carbapenem E strip on agar with sweetener
Source text: The data presented is a representative image of three biological replicates±SD.

[4] = system: P. aeruginosa PA14; assay: Crystal violet biofilm formation assay / minimum biofilm inhibition concentration; assay type: cell-based, Pseudomonas aeruginosa; conditions: 3% (w/v) sucralose, […] (w/v) ace-K, LB medium, 19 hours
Protocol: (§1) Biofilm formation is linked to 80% of hospital-associated infections and is a major factor in the routine failure of antibiotic therapy.
(§2) All samples were exposed to the artificial sweeteners in LB medium for 19 hours before crystal violet biofilm assay was performed. […] The data present the mean of three biological replicates±SD. *p≤0.05, *p≤0.001 versus the bacterial growth in control samples.
(§3) All samples were exposed to artificial sweeteners for 19 hours before crystal violet biofilm assay was performed.

[5] = system: A. baumannii; assay: as above; assay type: cell-based, Acinetobacter baumannii
Protocol: as §1, §2, §3

[6] = system: P. aeruginosa; assay: Antibiotic susceptibility in the presence of sub-minimum inhibitory concentration of ace-K; assay type: cell-based, Pseudomonas aeruginosa; conditions: grown in the presence of ace-K for 19 hours
[7] = system: A. baumannii AB5075; design: species or system Acinetobacter baumannii
Protocol: In this model, porcine skin was either burnt or lacerated and the wound infected with A. baumannii AB5075 and left for 3.5 hours to allow a biofilm to form. The dressing was applied for 1 hour and viable cells were collected after treatment. […] Samples were tested in biological triplicate with technical quadruplets.
(8% (w/w)), potassium tetraborate (3% (w/w)), and PVA (3% ((w/w)) were added into a beaker and mixed with deionized water. The mixture was placed in a water bath and heated at 80° C. for three hours with watch glass while being swirled with a stirring rod every 1 hour. Once hydrogels had been obtained, they were placed in a petri dish with custom-made moulds.

[8] = system: A. baumannii gene expression
Protocol: Cells were spun down and washed in RNAlater to preserve mRNA. RNA was isolated using a Qiagen RNAeasy Kit with column DNAase digestion. RNA integrity was determined using a Bioanalyzer. Samples were further processed for RNA sequencing on an Illumina MiSeq with 12 million reads per sample. Quality control and adapter trimming was performed with bcl2fastq.

[9] = system: E. coli
Source text: (§4) N=3 biological triplicate, each with technical triplicates).

[10] = system: Klebsiella pneumoniae
Source text: as §4

[11] = system: K. pneumonia
[12] = system: E. coli; remark: listed apart in the source
[13] = […] sweetener, 19 hours, 37° C.
[14] = […] sweetener, 19 hours, LB medium

OC[C@@H](O)[C@H](O)[C@@H](O)CO [xylitol, Xylitol]
bacterial growth in the presence of sweetener [1, 13]: inhibit the growth
bacterial growth in the presence of sweetener [2, 14]: inhibit the growth

C[C@@H](O)[C@H]1C(=O)N2C(C(=O)O)=C(S[C@@H]3CN[C@H](C(=O)N(C)C)C3)[C@H](C)[C@H]12 [meropenem]
point to which growth was inhibited on the strip ([3]; Control): ≥32 mg/L
point to which growth was inhibited on the strip ([3]; SAC 1%): 29.33 ± 4.61 ns mg/L
point to which growth was inhibited on the strip ([3]; SAC […]): 0.54 ± 0.19 mg/L

OC[C@@H](O)[C@@H](O[C@H]1O[C@H](CO)[C@@H](O)[C@H](O)[C@H]1O)[C@H](O)[C@@H](O)CO [maltitol, Maltitol]
bacterial growth in the presence of sweetener [1, 13]: inhibit the growth
bacterial growth in the presence of sweetener [2, 14]: inhibit the growth

OC[C@H]1O[C@H](O[C@]2(CCl)O[C@H](CCl)[C@@H](O)[C@@H]2O)[C@H](O)[C@@H](O)[C@H]1Cl [sucralose, Sucralose]
bacterial growth in the presence of sweetener [1, 13]: inhibit the growth
bacterial growth in the presence of sweetener [2, 14]: inhibit the growth
biofilm formation [4]: significantly inhibit biofilm formation
biofilm formation ([5]; 3% (w/v) sucralose, […] (w/v) ace-K, LB medium, 19 hours): significantly inhibit biofilm formation

C[C@@H](O)[C@H]1C(=O)N2C(C(=O)O)=C(SCCN=CN)C[C@H]12 [imipenem]
point to which growth was inhibited on the strip ([3]; Control): 21.33 ± 4.61 mg/L
point to which growth was inhibited on the strip ([3]; SAC 1%): 18.67 ± 4.61 ns mg/L
point to which growth was inhibited on the strip ([3]; SAC […]): 1 ± 0.43 mg/L

C[C@@H](O)[C@H]1C(=O)N2C(C(=O)O)=C(S[C@@H]3CN[C@H](CNS(N)(=O)=O)C3)[C@H](C)[C@H]12 [doripenem]
point to which growth was inhibited on the strip ([3]; Control): 18.67 ± 4.61 mg/L
point to which growth was inhibited on the strip ([3]; SAC 1%): 13.33 ± 2.31 ns mg/L
point to which growth was inhibited on the strip ([3]; SAC […]): 0.46 ± 0.07 mg/L

OCC1O[C@@H](O[C@@H]([C@H](O)[C@@H](O)CO)[C@H](O)CO)C(O)C(O)[C@H]1O (stereo partly drawn) [lactitol monohydrate, Lactitol]
bacterial growth in the presence of sweetener [2, 14]: inhibit the growth

gentamicin
susceptibility to antibiotic in the presence of ace-K [6]: increased susceptibility

polymyxin B [reference compound]
log reduction in viable cells [7]: 3.13 log
log reduction in viable cells ([7]; burn wound biofilms, gauze loaded with 1.5 mL of 0.59 mg/mL polymyxin B singularly): 2.11 log
susceptibility to antibiotic in the presence of ace-K [6]: increased susceptibility

piperacillin/tazobactam
susceptibility to antibiotic in the presence of ace-K [6]: increased susceptibility

OC[C@@H](O)[C@@H](O)[C@H](O)[C@H](O)CO [mannitol, Mannitol]
bacterial growth in the presence of sweetener [2, 14]: inhibit the growth

O=S(=O)([O-])NC1CCCCC1.[Na+] [cyclamate, sodium cyclamate]
bacterial growth in the presence of sweetener [1]: inhibit the growth
concentration showing significant / effective growth inhibition [1]: ≥ 2%
bacterial growth in the presence of sweetener [2]: inhibit the growth
concentration showing significant / effective growth inhibition [2]: ≥ 2%
concentration with significant impact on / inhibition of biofilm formation [5]: ≥ 4%
number of genes significantly differentially expressed [8]: 288 genes
concentration showing significant / effective growth inhibition [9]: ≥ 0.1%
concentration showing significant / effective growth inhibition [10]: ≥ 2%
concentration inhibiting biofilm formation [11]: ≥ 3%
concentration inhibiting biofilm formation [12]: ≥ 3%

OC[C@@H](O)[C@@H](O)CO [erythritol, Erythritol]
bacterial growth in the presence of sweetener [2, 14]: inhibit the growth

OC[C@@H](O)[C@@H](O)[C@H](O)[C@@H](O)CO [sorbitol]
bacterial growth in the presence of sweetener [1, 13]: inhibit the growth
